Laboratory results published in PubChem BioAssay (NCI).
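Each compound was tested at five concentrations against cells in 96-well plates for 48 hours. GI50 is the concentration that inhibits growth by half. At the TGI there is no net growth.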

What was measured:
Assay in all cases: DTP human tumour cell line panel, 48 h
OVCAR-3 ovarian = tested on: OVCAR-3 ovarian
OVCAR-8 ovarian = tested on: OVCAR-8 ovarian
LOX IMVI melanoma = tested on: LOX IMVI melanoma
IGROV1 ovarian = tested on: IGROV1 ovarian
SF-539 CNS = tested on: SF-539 CNS
A498 renal = tested on: A498 renal
PC-3 prostate = tested on: PC-3 prostate
SW-620 colon = tested on: SW-620 colon
MOLT-4 leukemia = tested on: MOLT-4 leukemia
UACC-257 melanoma = tested on: UACC-257 melanoma
OVCAR-5 ovarian = tested on: OVCAR-5 ovarian
SNB-19 CNS = tested on: SNB-19 CNS

## COc1ccc2cc1Oc1ccc(cc1)C(Sc1ccccc1)CCOC(=O)CC2 (stereo unspecified)
OVCAR-3 ovarian
  TGI: > 100 µM
OVCAR-8 ovarian
  TGI: > 100 µM
LOX IMVI melanoma
  TGI: > 100 µM
IGROV1 ovarian
  TGI: > 100 µM
SF-539 CNS
  TGI: > 100 µM
A498 renal
  TGI: > 100 µM
PC-3 prostate
  TGI: > 100 µM
SW-620 colon
  TGI: > 100 µM
MOLT-4 leukemia
  TGI: > 100 µM
UACC-257 melanoma
  TGI: > 100 µM
OVCAR-5 ovarian
  TGI: > 100 µM
SNB-19 CNS
  TGI: > 100 µM

## CC(C)=CC(=O)O[C@H]1C(=O)O[C@@H]2C[C@H]3[C@H](C)C(=O)C(O[C@@H]4O[C@H](CO)[C@@H](O)[C@H](O)[C@H]4O)=C[C@]3(C)[C@H]3[C@@H](O)[C@H](O)[C@]4(C(=O)O)OC[C@]32[C@@H]14
OVCAR-3 ovarian
  GI50: 20.3 µM
  TGI: 52.1 µM
OVCAR-8 ovarian
  GI50: > 100 µM
  TGI: > 100 µM
LOX IMVI melanoma
  GI50: 40.3 µM
  TGI: > 100 µM
IGROV1 ovarian
  TGI: > 100 µM
SF-539 CNS
  GI50: 26.6 µM
  TGI: 67.1 µM
A498 renal
  TGI: > 100 µM
PC-3 prostate
  TGI: > 100 µM
SW-620 colon
  TGI: > 100 µM
MOLT-4 leukemia
  GI50: 22.4 µM
  TGI: > 100 µM
UACC-257 melanoma
  TGI: > 100 µM
OVCAR-5 ovarian
  TGI: > 100 µM
SNB-19 CNS
  GI50: 31.3 µM
  TGI: > 100 µM

## COC(=O)c1ccccc1C#CC#Cc1ccccc1C(=O)OC
OVCAR-3 ovarian
  TGI: 7.91 µM
OVCAR-8 ovarian
  TGI: > 10 µM
LOX IMVI melanoma
  TGI: > 10 µM
IGROV1 ovarian
  TGI: > 10 µM
SF-539 CNS
  TGI: > 10 µM
A498 renal
  TGI: > 10 µM
PC-3 prostate
  TGI: > 10 µM
SW-620 colon
  TGI: > 10 µM
MOLT-4 leukemia
  TGI: > 10 µM
UACC-257 melanoma
  TGI: > 10 µM
OVCAR-5 ovarian
  TGI: > 10 µM
SNB-19 CNS
  TGI: > 10 µM

## O=C1C(NCCc2ccc(O)c(O)c2)=CC(=O)c2ncccc21
OVCAR-3 ovarian
  TGI: 7.77 µM
OVCAR-8 ovarian
  TGI: 57.3 µM
LOX IMVI melanoma
  TGI: 26.7 µM
IGROV1 ovarian
  TGI: 27.2 µM
SF-539 CNS
  TGI: 30.1 µM
A498 renal
  TGI: 46.7 µM
PC-3 prostate
  TGI: > 100 µM
SW-620 colon
  TGI: 32.3 µM
MOLT-4 leukemia
  TGI: 34.6 µM
UACC-257 melanoma
  TGI: 24.8 µM
OVCAR-5 ovarian
  TGI: 40.2 µM
SNB-19 CNS
  TGI: 45.8 µM

## FC(F)(F)c1ccccc1N1CCN(c2nc(-c3cccs3)nc3ccc(Br)cc23)CC1
OVCAR-3 ovarian
  TGI: 76.2 µM
OVCAR-8 ovarian
  TGI: > 100 µM
LOX IMVI melanoma
  TGI: > 100 µM
IGROV1 ovarian
  TGI: > 100 µM
SF-539 CNS
  TGI: > 100 µM
A498 renal
  TGI: > 100 µM
PC-3 prostate
  TGI: 49.5 µM
SW-620 colon
  TGI: > 100 µM
MOLT-4 leukemia
  TGI: > 100 µM
UACC-257 melanoma
  TGI: > 100 µM
OVCAR-5 ovarian
  TGI: > 100 µM
SNB-19 CNS
  TGI: > 100 µM

## [Se]=P(c1ccccc1)(c1ccccc1)c1ccc(C(c2ccccc2)=P(c2ccccc2)(c2ccccc2)c2ccccc2)cc1
OVCAR-3 ovarian
  TGI: 4.22 µM
OVCAR-8 ovarian
  TGI: 8.02 µM
LOX IMVI melanoma
  TGI: 2.48 µM
IGROV1 ovarian
  TGI: 11.5 µM
SF-539 CNS
  TGI: 17.8 µM
A498 renal
  TGI: 9.4 µM
PC-3 prostate
  TGI: 9.34 µM
SW-620 colon
  TGI: 19.2 µM
MOLT-4 leukemia
  TGI: 12.6 µM
UACC-257 melanoma
  TGI: 5.59 µM
OVCAR-5 ovarian
  TGI: 18.7 µM
SNB-19 CNS
  TGI: 16 µM

## O=C1C(F)=CC(COC(c2ccccc2)(c2ccccc2)c2ccccc2)OC1n1cc(F)c(=O)[nH]c1=O (stereo unspecified)
OVCAR-3 ovarian
  TGI: 3.21 µM
OVCAR-8 ovarian
  TGI: 7 µM
LOX IMVI melanoma
  TGI: 3.54 µM
IGROV1 ovarian
  TGI: 6.79 µM
SF-539 CNS
  TGI: 3.75 µM
A498 renal
  TGI: 24.4 µM
PC-3 prostate
  TGI: 4.69 µM
SW-620 colon
  TGI: 4.26 µM
MOLT-4 leukemia
  TGI: 4.81 µM
UACC-257 melanoma
  TGI: 4.72 µM
OVCAR-5 ovarian
  TGI: 4.61 µM
SNB-19 CNS
  TGI: 12.8 µM

## O=C1Sc2ccc(Br)cc2C(=O)Sc2ccccc21
OVCAR-3 ovarian
  TGI: 27.2 µM
OVCAR-8 ovarian
  TGI: 24 µM
LOX IMVI melanoma
  TGI: 25.3 µM
IGROV1 ovarian
  TGI: 31.6 µM
SF-539 CNS
  TGI: 26.4 µM
A498 renal
  TGI: 43.6 µM
PC-3 prostate
  TGI: 26.1 µM
SW-620 colon
  TGI: 67.7 µM
MOLT-4 leukemia
  TGI: 19.9 µM
UACC-257 melanoma
  TGI: 28.4 µM
OVCAR-5 ovarian
  TGI: 36.8 µM
SNB-19 CNS
  TGI: 29.5 µM

## C/C(=N/NC(=S)Nc1ccccc1Cl)c1cccc(/C(C)=N\NC(=S)Nc2ccccc2Cl)n1
OVCAR-3 ovarian
  TGI: > 100 µM
OVCAR-8 ovarian
  TGI: 81.8 µM
LOX IMVI melanoma
  TGI: > 100 µM
IGROV1 ovarian
  TGI: > 100 µM
SF-539 CNS
  TGI: > 100 µM
A498 renal
  TGI: > 100 µM
PC-3 prostate
  TGI: > 100 µM
SW-620 colon
  TGI: > 100 µM
MOLT-4 leukemia
  TGI: > 100 µM
UACC-257 melanoma
  TGI: > 100 µM
OVCAR-5 ovarian
  TGI: > 100 µM
SNB-19 CNS
  TGI: > 100 µM

## Cc1c(C(=O)N2CCN(c3ccc([N+](=O)[O-])cc3)CC2)[n+](=O)c2cc(Cl)c(Cl)cc2n1[O-]
OVCAR-3 ovarian
  TGI: 43.2 µM
OVCAR-8 ovarian
  TGI: 33 µM
LOX IMVI melanoma
  TGI: > 100 µM
IGROV1 ovarian
  TGI: 42.7 µM
SF-539 CNS
  TGI: 32.6 µM
A498 renal
  TGI: 23.1 µM
PC-3 prostate
  TGI: 45 µM
SW-620 colon
  TGI: > 100 µM
MOLT-4 leukemia
  TGI: > 100 µM
UACC-257 melanoma
  TGI: > 100 µM
OVCAR-5 ovarian
  TGI: 44 µM
SNB-19 CNS
  TGI: 42.1 µM

## NCCCn1c2ccccc2c2c3c(c4c(c21)CCC(O)CC4)C(=O)NC3=O (stereo unspecified)
OVCAR-3 ovarian
  TGI: 12.2 µM
OVCAR-8 ovarian
  TGI: 21.6 µM
LOX IMVI melanoma
  TGI: 2.92 µM
IGROV1 ovarian
  TGI: 21.5 µM
SF-539 CNS
  TGI: 21.6 µM
A498 renal
  TGI: 22.8 µM
PC-3 prostate
  TGI: 16.2 µM
SW-620 colon
  TGI: 5.19 µM
MOLT-4 leukemia
  TGI: 11.2 µM
UACC-257 melanoma
  TGI: 29.7 µM
OVCAR-5 ovarian
  TGI: 15.5 µM

## COc1ccc(O[C@H](COCc2ccccc2)C[C@@H]2COC(C)(C)O2)cc1
OVCAR-3 ovarian
  TGI: > 100 µM
OVCAR-8 ovarian
  TGI: > 100 µM
LOX IMVI melanoma
  TGI: > 100 µM
IGROV1 ovarian
  TGI: > 100 µM
SF-539 CNS
  TGI: > 100 µM
A498 renal
  TGI: > 100 µM
PC-3 prostate
  TGI: > 100 µM
SW-620 colon
  TGI: > 100 µM
MOLT-4 leukemia
  TGI: > 100 µM
UACC-257 melanoma
  TGI: > 100 µM
OVCAR-5 ovarian
  TGI: > 100 µM
SNB-19 CNS
  TGI: > 100 µM

## O=C(CN1CCN(Cc2ccccc2)CC1)N1CCCn2c1nc1ccccc1c2=O
OVCAR-3 ovarian
  TGI: > 100 µM
OVCAR-8 ovarian
  TGI: > 100 µM
LOX IMVI melanoma
  TGI: > 100 µM
IGROV1 ovarian
  TGI: > 100 µM
SF-539 CNS
  TGI: > 100 µM
A498 renal
  TGI: > 100 µM
PC-3 prostate
  TGI: > 100 µM
SW-620 colon
  TGI: > 100 µM
MOLT-4 leukemia
  TGI: > 100 µM
UACC-257 melanoma
  TGI: > 100 µM
OVCAR-5 ovarian
  TGI: > 100 µM
SNB-19 CNS
  TGI: > 100 µM

## Cc1ccc(OCC2OC(n3cnc4nc(Cl)nc(Cl)c43)CC2Oc2ccc(C)cc2)cc1 (stereo unspecified)
OVCAR-3 ovarian
  TGI: 18.9 µM
OVCAR-8 ovarian
  TGI: 59.5 µM
LOX IMVI melanoma
  TGI: 3.45 µM
IGROV1 ovarian
  TGI: 19.7 µM
SF-539 CNS
  TGI: 13.9 µM
A498 renal
  TGI: 72.2 µM
PC-3 prostate
  TGI: 24.5 µM
SW-620 colon
  TGI: 28 µM
MOLT-4 leukemia
  TGI: 5.76 µM
UACC-257 melanoma
  TGI: 29.6 µM
OVCAR-5 ovarian
  TGI: 32.1 µM
SNB-19 CNS
  TGI: 30.1 µM

## O=C(Nc1cccc(C(F)(F)F)c1)O/N=C(/Cl)CCl
OVCAR-3 ovarian
  TGI: > 100 µM
OVCAR-8 ovarian
  TGI: > 100 µM
LOX IMVI melanoma
  TGI: 69.9 µM
IGROV1 ovarian
  TGI: > 100 µM
SF-539 CNS
  TGI: > 100 µM
A498 renal
  TGI: > 100 µM
PC-3 prostate
  TGI: > 100 µM
SW-620 colon
  TGI: > 100 µM
MOLT-4 leukemia
  TGI: 79.6 µM
UACC-257 melanoma
  TGI: > 100 µM
OVCAR-5 ovarian
  TGI: 45.3 µM
SNB-19 CNS
  TGI: > 100 µM

## CNc1ccc(-c2nc3cc(C)ccc3o2)cc1
OVCAR-3 ovarian
  TGI: > 100 µM
OVCAR-8 ovarian
  TGI: > 100 µM
LOX IMVI melanoma
  TGI: > 100 µM
IGROV1 ovarian
  TGI: > 100 µM
SF-539 CNS
  TGI: > 100 µM
A498 renal
  TGI: 77.8 µM
PC-3 prostate
  TGI: > 100 µM
SW-620 colon
  TGI: > 100 µM
MOLT-4 leukemia
  TGI: > 100 µM
UACC-257 melanoma
  TGI: > 100 µM
OVCAR-5 ovarian
  TGI: > 100 µM
SNB-19 CNS
  TGI: > 100 µM

## Clc1ccc(Cc2nc3ccc(CCN4CCN(c5ccccc5)CC4)cc3[nH]2)cc1
OVCAR-3 ovarian
  TGI: 27 µM
OVCAR-8 ovarian
  TGI: 36.3 µM
LOX IMVI melanoma
  TGI: 27 µM
IGROV1 ovarian
  TGI: 90.6 µM
SF-539 CNS
  TGI: 33.5 µM
A498 renal
  TGI: 32.5 µM
PC-3 prostate
  TGI: > 100 µM
SW-620 colon
  TGI: > 100 µM
MOLT-4 leukemia
  TGI: 40.6 µM
UACC-257 melanoma
  TGI: 18.8 µM
OVCAR-5 ovarian
  TGI: 66.4 µM
SNB-19 CNS
  TGI: 41.6 µM

## CN(C)c1ccc(/C=C2\N=C(NN)NC2=O)cc1
OVCAR-3 ovarian
  TGI: > 100 µM
OVCAR-8 ovarian
  TGI: > 100 µM
LOX IMVI melanoma
  TGI: > 100 µM
IGROV1 ovarian
  TGI: > 100 µM
SF-539 CNS
  TGI: 96.6 µM
A498 renal
  TGI: > 100 µM
PC-3 prostate
  TGI: > 100 µM
SW-620 colon
  TGI: > 100 µM
MOLT-4 leukemia
  TGI: > 100 µM
UACC-257 melanoma
  TGI: > 100 µM
OVCAR-5 ovarian
  TGI: > 100 µM
SNB-19 CNS
  TGI: > 100 µM
